31 compounds from US12583818B2 (DAEGU-GYEONGBUK MEDICAL INNOVATION FOUNDATION, priority 2020, dated 2026) can be followed below.

T1 sequence (Q13526 whole entry): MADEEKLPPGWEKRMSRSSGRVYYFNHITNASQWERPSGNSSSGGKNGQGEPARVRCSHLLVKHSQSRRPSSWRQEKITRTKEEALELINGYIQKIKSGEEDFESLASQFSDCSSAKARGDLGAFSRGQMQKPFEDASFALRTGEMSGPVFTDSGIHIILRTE

The first experiment concerns the target T1, Pin1 (Homo sapiens, UniProt Q13526).
T1 construct: purchased Anaspec
Kind of experiment: Evaluation of Pin1 enzyme inhibitory activity (Sensolyte Green Pin1 assay kit). The class given is biochemical. The following applies: Table 2; read-out: concentration at which Pin1 inhibitory activity was exhibited. As to the method:
In order to evaluate the Pin1 enzyme inhibitory activity of the compound represented by formula 1 according to the present invention, the following experiment was performed, and the results are shown in Table 2 below.
The enzyme activity of Pin1 protein was measured using a sensolyte Green Pin1 assay kit of Anaspec. The substrate was diluted in a buffer at a ratio of 1:100 to prepare a concentration of 1 μM, and the protein was diluted in a buffer at a ratio of 1:20 to prepare a concentration of 50 μg/ml. In addition, a developing solution was prepared by diluting thereof in a buffer at a ratio of 1:100.
The compound prepared in each example was diluted with DMSO and prepared at a concentration of 100 μM, 10 μM, 1 μM or 0.1 μM using a buffer. After sequentially adding 10 μl of the compound prepared in each Example diluted to four concentrations according to the above method, 10 μl of Pin1 protein, and 30 μl of the developing solution to each well of a black 96-well plate, […]. Finally, 50 μl of the substrate was added to each well of the plate, and the enzyme reaction was carried out after shaking the plate for 10 seconds.
Then, the plate was incubated for 2 hours at room temperature in an environment without light, and the fluorescence values at 490 nm/520 nm wavelength were measured using a device of Synergy Neo […]. The results are shown in Table 2 below by dividing the grades of A to D for each concentration (μM) at which the Pin1 enzyme activity is inhibited.
For `O=S(=O)(NCCCc1c[nH]c2ccc(Cl)cc12)c1ccc(OCCCN2CCCCC2)cc1` [Example 87, N-(3-(5-chloro-1H-indol-3-yl)propyl)-4-(3-(piperidin-1-yl)propoxy)benzenesulfonamide], the IC50 was < 1 µM. Regarding `O=S(=O)(NCCCc1c[nH]c2ccc(Cl)cc12)c1ccc(OCCCN2CCCCCC2)cc1` [Example 101, 4-(3-(azepan-1-yl)propoxy)-N-(3-(5-chloro-1H-indol-3-yl)propyl)benzenesulfonamide], the IC50 is < 1 µM. As to `O=S(=O)(NCCCc1c[nH]c2ccc(Cl)cc12)c1ccc(OCCCN2CCCNCC2)cc1` [Example 102, 4-(3-(1,4-diazepan-1-yl)propoxy)-N-(3-(5-chloro-1H-indol-3-yl)propyl)benzenesulfonamide], the IC50 was < 1 µM. For `CC1CN(CCCOc2ccc(S(=O)(=O)NCCCc3c[nH]c4ccc(Cl)cc34)cc2)CCN1` (stereo not drawn) [Example 107, N-(3-(5-chloro-1H-indole-3-yl)propyl)-4-(3-(3-methylpiperazine-1-yl)propoxy)benzenesulfonamide], the IC50 was < 1 µM. On the same count and under the same terms, in the case of `CN1CCN(CC2(COc3ccc(S(=O)(=O)NCCCc4c[nH]c5ccc(Cl)cc45)cc3)CC2)CC1` [Example 116, N-(3-(5-chloro-1H-indole-3-yl)propyl)-4-((1-((4-methylpiperazine-1-yl)methyl)cyclopropyl)methoxy)benzenesulfonamide] it was < 1 µM.

Staying with this experiment, now noted: concentration at which the Pin1 enzyme activity is inhibited; 2 hours at room temperature, fluorescence 490 nm/520 nm; read-out: Pin 1 inhibition.
For the compound `COc1ccc2[nH]cc(CCNS(=O)(=O)c3ccc(OCCCN4CCN(C)CC4)cc3)c2c1` [Example 49, N-(2-(5-methoxy-1H-indol-3-yl)ethyl)-4-(3-(4-methylpiperazin-1-yl)propoxy)benzenesulfonamide], the IC50 lay in the range of 10 to 100 µM. On the same count and under the same terms, in the case of `CN1CCN(CCCOc2ccc(S(=O)(=O)NCCc3c[nH]c4ccccc34)cc2)CC1` [Example 50, N-(2-(1H-indol-3-yl)ethyl)-4-(3-(4-methylpiperazin-1-yl)propoxy)benzenesulfonamide] it was 10 to 100 µM; in that of `CC(C)N1CCN(CCCOc2ccc(S(=O)(=O)NCCc3c[nH]c4ccccc34)cc2)CC1` [Example 51, N-(2-(1H-indol-3-yl)ethyl)-4-(3-(4-isopropylpiperazin-1-yl)propoxy)benzenesulfonamide], > 100 µM. The same measure, in the same setting: to `CN1CCN(CCOc2ccc(S(=O)(=O)NCCCc3c[nH]c4ccccc34)cc2)CC1` [Example 52, N-(3-(1H-indol-3-yl)propyl)-4-(2-(4-methylpiperazin-1-yl)ethoxy)benzenesulfonamide] belongs 10 to 100 µM; to `CC(C)N1CCN(CCOc2ccc(S(=O)(=O)NCCCc3c[nH]c4ccccc34)cc2)CC1` [Example 53, N-(3-(1H-indol-3-yl)propyl)-4-(2-(4-isopropylpiperazin-1-yl)ethoxy)benzenesulfonamide], 10 to 100 µM.

Turning to `Cc1[nH]c2ccccc2c1CCNS(=O)(=O)c1ccc(OCCCN2CCN(C)CC2)cc1` [Example 54, N-(2-(2-methyl-1H-indol-3-yl)ethyl)-4-(3-(4-methylpiperazin-1-yl)propoxy)benzenesulfonamide], the IC50 lay in the range of 10 to 100 µM. Still for that read-out and setting: to `CN1CCN(CCCOc2ccc(S(=O)(=O)NCCCc3c[nH]c4ccccc34)cc2F)CC1` [Example 62, N-(3-(1H-indol-3-yl)propyl)-3-fluoro-4-(3-(4-methylpiperazin-1-yl)propoxy)benzenesulfonamide] belongs 1 to 10 µM. Still for that read-out and setting: to `CCN1CCN(CCCOc2ccc(S(=O)(=O)NCCCc3c[nH]c4ccc(F)cc34)cc2)CC1` [Example 63, 4-(3-(4-ethylpiperazin-1-yl)propoxy)-N-(3-(5-fluoro-1H-indol-3-yl)propyl)benzenesulfonamide] belongs 1 to 10 µM; to `COc1ccc2[nH]cc(C3CCN(S(=O)(=O)c4ccc(OCCCN5CCN(C)CC5)cc4)CC3)c2c1` [Example 64, 5-methoxy-3-(1-((4-(3-(4-methylpiperazin-1-yl)propoxy)phenyl)sulfonyl)piperidin-4-yl)-1H-indole], 10 to 100 µM. Still for that read-out and setting: in the case of `Cc1ccc2[nH]cc(C3CCN(S(=O)(=O)c4ccc(OCCCN5CCN(C)CC5)cc4)CC3)c2c1` [Example 65, 5-methyl-3-(1-((4-(3-(4-methylpiperazin-1-yl)propoxy)phenyl)sulfonyl)piperidin-4-yl)-1H-indole] it was 10 to 100 µM. Consider `Cc1ccc2[nH]cc(CCCNS(=O)(=O)c3ccc(OCCCN4CCN(C)CC4)cc3)c2c1` [Example 67, N-(3-(5-methyl-1H-indol-3-yl)propyl)-4-(3-(4-methylpiperazin-1-yl)propoxy)benzenesulfonamide], for which the IC50 was 1 to 10 µM. Still for that read-out and setting: in the case of `COc1ccc2[nH]cc(CCCNS(=O)(=O)c3ccc(OCCCN4CCN(C)CC4)cc3)c2c1` [Example 68, N-(3-(5-methoxy-1H-indol-3-yl)propyl)-4-(3-(4-methylpiperazin-1-yl)propoxy)benzenesulfonamide] it was 1 to 10 µM; in that of `O=S(=O)(NCCCc1c[nH]c2ccccc12)c1ccc(OCCCN2CCC(O)CC2)cc1` [Example 69, N-(3-(1H-indol-3-yl)propyl)-4-(3-(4-hydroxypiperidin-1-yl)propoxy)benzenesulfonamide], 1 to 10 µM. On the same count and under the same terms, in the case of `CN1CCN(CCCOc2ccc(S(=O)(=O)N3CCC(c4c[nH]c5ccc(F)cc45)CC3)cc2)CC1` [Example 71, 5-fluoro-3-(1-((4-(3-(4-methylpiperazin-1-yl)propoxy)phenyl)sulfonyl)piperidin-4-yl)-1H-indole] it was 10 to 100 µM; in that of `C[C@@H]1CN(CCCOc2ccc(S(=O)(=O)NCCCc3c[nH]c4ccc(F)cc34)cc2)C[C@H](C)N1` [Example 72, 4-(3-((3S,5R)-3,5-dimethylpiperazine-1-yl)propoxy)-N-(3-(5-fluoro-1H-indole-3-yl)propyl)benzenesulfonamide], 10 to 100 µM; in that of `CC(C)C(=O)N1CCN(CCCOc2ccc(S(=O)(=O)NCCCc3c[nH]c4ccc(F)cc34)cc2)CC1` [Example 73, N-(3-(5-fluoro-1H-indol-3-yl)propyl)-4-(3-(4-isobutyrylpiperazin-1-yl)propoxy)benzenesulfonamide], 10 to 100 µM. On the same count and under the same terms, to `O=S(=O)(NCCCc1c[nH]c2ccc(F)cc12)c1ccc(OCCCN2CCN(CC(F)(F)F)CC2)cc1` [Example 74, N-(3-(5-fluoro-1H-indol-3-yl)propyl)-4-(3-(4-(2,2,2-trifluoroethyl)piperazin-1-yl)propoxy)benzenesulfonamide] belongs 1 to 10 µM; to `O=S(=O)(NCCCc1c[nH]c2ccc(Cl)cc12)c1ccc(OCCCN2CCN(CC(F)(F)F)CC2)cc1` [Example 76, N-(3-(5-chloro-1H-indol-3-yl)propyl)-4-(3-(4-(2,2,2-trifluoroethyl)piperazin-1-yl)propoxy)benzenesulfonamide], 1 to 10 µM; to `O=S(=O)(NCCCc1c[nH]c2ccc(F)cc12)c1ccc(OCCCN2CCCCC2)cc1` [Example 84, N-(3-(5-fluoro-1H-indol-3-yl)propyl)-4-(3-(piperidin-1-yl)propoxy)benzenesulfonamide], 1 to 10 µM. With `CN1CCN(CCCOc2ccc(S(=O)(=O)NC3CCCC(c4c[nH]c5ccccc45)C3)cc2)CC1` (stereo not drawn) [Example 85, N-(3-(1H-indole-3-yl)cyclohexyl)-4-(3-(4-methylpiperazine-1-yl)propoxy)benzenesulfonamide], the IC50 fell in the range of 10 to 100 µM. Same read-out and setting: in the case of `O=S(=O)(NCCCc1c[nH]c2ccc(Cl)cc12)c1ccc(OCCCN2CCCCC2)cc1` [Example 87, N-(3-(5-chloro-1H-indol-3-yl)propyl)-4-(3-(piperidin-1-yl)propoxy)benzenesulfonamide] it was < 1 µM. As for `CN1CCN(CCCOc2ccc(S(=O)(=O)Nc3cccc(-c4c[nH]c5ccccc45)c3)cc2)CC1` [Example 89, N-(3-(1H-indole-3-yl)phenyl)-4-(3-(4-methylpiperazine-1-yl)propoxy)benzenesulfonamide], the IC50 was in the range of 10 to 100 µM. Regarding `O=S(=O)(NCCCc1c[nH]c2ccc(Cl)cc12)c1cccc(OCCCC2CCNCC2)c1` [Example 94, N-(3-(5-chloro-1H-indol-3-yl)propyl)-3-(3-(piperidin-4-yl)propoxy)benzenesulfonamide], the IC50 lay within 1 to 10 µM.

With `O=S(=O)(NCCCc1c[nH]c2ccc(Cl)cc12)c1cccc(OCCCN2CCNCC2)c1` [Example 96, N-(3-(5-chloro-1H-indol-3-yl)propyl)-3-(3-(piperazin-1-yl)propoxy)benzenesulfonamide], the IC50 fell in the range of 1 to 10 µM. The same measure, in the same setting: to `O=S(=O)(NCCCc1c[nH]c2ccc(F)cc12)c1ccc(OCCCC2CCNCC2)cc1` [Example 97, N-(3-(5-fluoro-1H-indol-3-yl)propyl)-4-(3-(piperidin-4-yl)propoxy)benzenesulfonamide] belongs 1 to 10 µM; to `O=S(=O)(NCCCc1c[nH]c2ccc(Cl)cc12)c1ccc(OCCCN2CCCCCC2)cc1` [Example 101, 4-(3-(azepan-1-yl)propoxy)-N-(3-(5-chloro-1H-indol-3-yl)propyl)benzenesulfonamide], < 1 µM.

In the case of `O=S(=O)(NCCCc1c[nH]c2ccc(Cl)cc12)c1ccc(OCCCN2CCCNCC2)cc1` [Example 102, 4-(3-(1,4-diazepan-1-yl)propoxy)-N-(3-(5-chloro-1H-indol-3-yl)propyl)benzenesulfonamide], the IC50 is < 1 µM. Still for that read-out and setting: to `CC1CN(CCCOc2ccc(S(=O)(=O)NCCCc3c[nH]c4ccc(Cl)cc34)cc2)CCN1` (stereo not drawn) [Example 107, N-(3-(5-chloro-1H-indole-3-yl)propyl)-4-(3-(3-methylpiperazine-1-yl)propoxy)benzenesulfonamide] belongs < 1 µM; to `CN1CCN(CC2(COc3ccc(S(=O)(=O)NCCCc4c[nH]c5ccc(Cl)cc45)cc3)CC2)CC1` [Example 116, N-(3-(5-chloro-1H-indole-3-yl)propyl)-4-((1-((4-methylpiperazine-1-yl)methyl)cyclopropyl)methoxy)benzenesulfonamide], < 1 µM.

As to `O=S(=O)(NCCCc1c[nH]c2ccc(Cl)cc12)c1ccc(Oc2cccc(Br)c2)cc1` [Example 119, 4-(3-bromophenoxy)-N-(3-(5-chloro-1H-indol-3-yl)propyl)benzenesulfonamide], the IC50 fell in the range of 1 to 10 µM. Turning to `O=S(=O)(NCCCc1c[nH]c2ccc(Cl)cc12)c1ccc(Oc2cccc(N3CCCCC3)c2)cc1` [Example 120, N-(3-(5-chloro-1H-indol-3-yl)propyl)-4-(3-(piperidin-1-yl)phenoxy)benzenesulfonamide], the IC50 was 1 to 10 µM.
